Experiment [1] has as its target T1, hP2X2/3 (Homo sapiens, UniProt P56373+Q9UBL9).
T1 construct: host or cells: 1321N1 cells
T1 sequence (Q9UBL9 1-471): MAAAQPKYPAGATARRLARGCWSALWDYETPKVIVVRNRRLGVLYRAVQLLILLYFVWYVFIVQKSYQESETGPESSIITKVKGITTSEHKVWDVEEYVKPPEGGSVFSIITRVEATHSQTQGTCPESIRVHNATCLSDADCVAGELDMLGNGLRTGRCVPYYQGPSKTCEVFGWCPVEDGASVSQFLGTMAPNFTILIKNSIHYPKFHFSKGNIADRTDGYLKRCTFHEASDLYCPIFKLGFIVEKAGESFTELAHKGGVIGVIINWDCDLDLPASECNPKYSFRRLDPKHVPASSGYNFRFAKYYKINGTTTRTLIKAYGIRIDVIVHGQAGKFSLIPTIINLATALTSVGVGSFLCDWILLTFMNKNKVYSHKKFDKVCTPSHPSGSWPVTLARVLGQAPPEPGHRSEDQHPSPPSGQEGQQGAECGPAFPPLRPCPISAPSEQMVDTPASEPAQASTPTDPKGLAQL
T1 sequence (P56373 1-397): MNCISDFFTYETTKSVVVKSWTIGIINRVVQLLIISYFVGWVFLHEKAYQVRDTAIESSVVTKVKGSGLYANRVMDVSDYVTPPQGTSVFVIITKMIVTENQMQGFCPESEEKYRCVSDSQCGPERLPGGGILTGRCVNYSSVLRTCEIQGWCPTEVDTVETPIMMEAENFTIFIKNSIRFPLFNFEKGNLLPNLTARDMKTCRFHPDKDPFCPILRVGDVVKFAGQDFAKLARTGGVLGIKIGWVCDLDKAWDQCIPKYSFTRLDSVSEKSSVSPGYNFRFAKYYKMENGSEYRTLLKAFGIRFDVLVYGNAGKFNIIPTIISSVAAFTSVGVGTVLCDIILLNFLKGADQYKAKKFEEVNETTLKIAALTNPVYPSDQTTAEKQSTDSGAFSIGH
As to the kind of experiment: FLIPR calcium flux assay, antagonistic activity against hP2X2/3 receptor. The format is cell-based. Particulars: 1321N1/hP2X2/3 cells, agonist α,β-meATP 1000 nM. As for the experimental part: The compounds were screened for antagonistic activity against hP2X3 and hP2X2/3 receptors (changes in calcium flux signals represent the effect of the compounds on ion channels) by an FLIPR assay.
1321N1 cells (adherent cells) stably transfected with hP2X3 and hP2X2/3 receptors were digested, centrifuged, resuspended in a plating medium (DMEM+10% DFBS) and counted, adjusted to 2×10^5 cells/mL. The cells were seeded in a 384-well assay plate at 50 μL/well, and incubated in an incubator at 37° C. with 5% CO2 for 16-24 h. Test compounds (20 mM DMSO stock solution) that were 180 times the desired concentration were prepared with DMSO, and added to a 384-well compound plate at 500 nL/well. Then, each well was supplemented with 30 μL of FLIPR buffer (lx HBSS containing 1.26 mM Ca^2++2 mM CaCl2)+20 mM HEPES), and the mixture was shaken for 20-40 min to be mixed well. The agonist α,β-meATP (final concentration of 500 nM for hP2X3 cells and final concentration of 1000 nM for hP2X2/3 cells) that was 3 times the desired concentration was prepared with an FLIPR buffer, and added to another 384-well compound plate at 35 μL/well. The cell plate in which cells had been plated and cultured for 16-24 h was taken out, and the cell supernatant was removed by pipetting. 30 μL of dye (FLIPR® calcium 4 assay kit, diluted with an FLIPR buffer) was added to each well, and the plate was incubated for 1 h. 15 μL of the compound was added to each well containing cells (dosing using an FLIPR instrument), and after 15 min, 22.5 μL of agonist was added to each well and the fluorescent signal was detected (excitation wavelength: 470-495 nm, emission wavelength: 515-575 nm). With the difference between the peak and the trough of the signal taken as the basic data, the data of the highest concentration of the positive drug taken as the 100% inhibition rate, and the data of DMSO taken as the 0% inhibition rate, the inhibition effect curves of the compounds were fitted on the software Graphpad Prism 6 and IC50 values were calculated.
A general note: A change in cytosolic calcium serves as a functional read-out for many receptors and channels.

In experiment [2] the target is T2, CYP2C9 (Homo sapiens, UniProt P11712).
T2 construct: 150-donor pooled human liver microsomes (purchased from Corning, Cat. No. 452117); tissue Corning 452117; host or cells: 150-donor pooled human liver microsomes
As to the kind of experiment: CYP inhibition assay in pooled human liver microsomes (diclofenac sodium). The format is in vitro ADME. Particulars: human liver microsomes 0.2 mg/mL, substrate diclofenac sodium; read-out: CYP 2C9 (μM) IC50. As for the experimental part:
(§1) The metabolic reactions of representative substrates of 5 major human CYP subtypes (CYP1A2, CYP2C9, CYP2C19, CYP2D6, CYP3A4/5) were evaluated using 150-donor pooled human liver microsomes (purchased from Corning, Cat. No. 452117). The effects of different concentrations of the test compounds on the metabolic reactions of phenacetin (CYP1A2), diclofenac sodium (CYP2C9), S-mephenytoin (CYP2C19), bufuralol hydrochloride (CYP2D6) and midazolam (CYP3A4/5) were determined by liquid chromatography-tandem mass spectrometry (LC/MS/MS).
(§2) 30 μM phenacetin, 10 μM diclofenac sodium, 35 μM S-mephenytoin, 5 μM bufuralol hydrochloride, 3 μM midazolam, 1 mM NADPH, and test compounds (at concentrations of 0.1 μmol/L, 0.3 μmol/L, 1 μmol/L, 3 μmol/L, 10 μmol/L, and 30 μmol/L, respectively) or positive compound or blank were incubated with 200 μL of a reaction system of pooled human liver microsomes (0.2 mg/mL) (100 mmol/L phosphate buffer, pH 7.4, containing 0.3% by volume of DMSO, 0.6% by volume of acetonitrile, and 0.1% by volume of methanol) at 37° C. for 5 min. Then, 200 μL of acetonitrile containing 3% formic acid and 40 nM internal standard verapamil was added, and the mixture was centrifuged at 4000 rpm for 50 min. The mixture was cooled on ice for 20 min and centrifuged at 4000 rpm for 20 min to precipitate the protein. 200 μL of the supernatant was analyzed by LC/MS/MS.
(§3) The peak area was calculated from the chromatogram. The residual activity rate (%) was calculated by the following formula:
(§4) peak area rate=peak area of metabolite/peak area of internal standard
(§5) residual activity rate (%)=peak area proportion of the test compound group/peak area proportion of the blank group
(§6) The half maximal inhibitory concentrations (IC50) against CYP were calculated by Excel XLfit 5.3.1.3.

The target in experiment [3] is T3, CYP2C19 (Homo sapiens, UniProt P33261).
T3 construct: 150-donor pooled human liver microsomes (purchased from Corning, Cat. No. 452117); tissue Corning 452117; host or cells: 150-donor pooled human liver microsomes
As to the kind of experiment: CYP inhibition assay in pooled human liver microsomes (S-mephenytoin). The format is in vitro ADME. As for the experimental part: as §1, §2, §3, §4, §5, §6
(Microsomes from liver hold many membrane-bound enzymes, among them those of drug oxidation.)

Setting [4] is: human liver microsomes 0.2 mg/mL, substrate S-mephenytoin, read-out: CYP 2C19 (μM) IC50.

Read-outs that look alike come from different tables or passages of the source.

T3 sequence (P33261 whole entry): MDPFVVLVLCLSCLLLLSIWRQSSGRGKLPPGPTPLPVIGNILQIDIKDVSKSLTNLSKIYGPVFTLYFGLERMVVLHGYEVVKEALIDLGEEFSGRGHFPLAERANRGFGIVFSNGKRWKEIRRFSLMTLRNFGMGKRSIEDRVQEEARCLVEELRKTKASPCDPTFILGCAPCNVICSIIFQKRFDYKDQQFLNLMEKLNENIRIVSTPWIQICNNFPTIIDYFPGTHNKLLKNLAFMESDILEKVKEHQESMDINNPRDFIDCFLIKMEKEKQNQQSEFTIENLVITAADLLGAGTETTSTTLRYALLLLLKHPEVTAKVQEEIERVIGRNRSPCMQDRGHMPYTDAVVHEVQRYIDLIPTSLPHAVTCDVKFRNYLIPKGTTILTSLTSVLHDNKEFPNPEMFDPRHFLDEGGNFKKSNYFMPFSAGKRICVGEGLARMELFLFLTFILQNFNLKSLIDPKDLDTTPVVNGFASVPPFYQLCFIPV
T2 sequence (P11712 whole entry): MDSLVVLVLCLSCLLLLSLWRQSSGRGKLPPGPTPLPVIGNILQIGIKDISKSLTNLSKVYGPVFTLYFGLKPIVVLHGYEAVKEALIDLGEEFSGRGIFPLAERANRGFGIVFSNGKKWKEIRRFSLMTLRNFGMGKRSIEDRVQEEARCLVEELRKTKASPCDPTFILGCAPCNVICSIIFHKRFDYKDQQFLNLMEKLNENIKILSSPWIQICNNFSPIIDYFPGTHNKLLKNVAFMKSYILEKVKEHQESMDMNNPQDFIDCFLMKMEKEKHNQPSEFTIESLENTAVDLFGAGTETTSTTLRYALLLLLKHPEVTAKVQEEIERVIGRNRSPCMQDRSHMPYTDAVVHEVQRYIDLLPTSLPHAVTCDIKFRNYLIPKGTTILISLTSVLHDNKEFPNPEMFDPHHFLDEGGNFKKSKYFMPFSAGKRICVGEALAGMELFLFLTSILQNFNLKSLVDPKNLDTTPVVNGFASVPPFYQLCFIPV

As to `CC(=O)N1CCOC(Cn2c(-c3c(F)cc(N4CCCC4=O)cc3F)nc3cc(C)ccc32)C1` (stereo in doubt) [Compound 1], the IC50 amounted to 5.57 µM in experiment [1], 21.7 µM in experiment [2] and 13 µM in experiment [3] (setting [4]).

Turning to `COC(=O)N1CCOC(Cn2c(-c3c(F)cc(N4CCCC4=O)cc3F)nc3cc(C)ccc32)C1` (centres unmarked) [Compound 2, Methyl 2-((2-(2,6-difluoro-4-(2-carbonylpyrrolidin-1-yl)phenyl)-5-methyl-1H-benzo[d]imidazol-1-yl)methyl)morpholine-4-carboxylate], the IC50 is 19 µM in experiment [1], 3.06 µM in experiment [2] and 14.6 µM in experiment [3] (setting [4]).

Regarding `CC(=O)N1CCO[C@@H](Cn2c(-c3ccc(N4CCCC4=O)cc3Cl)nc3cc(C)ccc32)C1` [Compound 3, (S)-1-(4-(1-((4-acetylmorpholin-2-yl)methyl)-5-methyl-1H-benzo[d]imidazol-2-yl)-3-chlorophenyl)pyrrolidin-2-one], the IC50 is 1.81 µM in experiment [1], more than 30 µM in experiment [2] and more than 30 µM in experiment [3] (setting [4]).

Consider `CC(=O)N1CCO[C@@H](Cn2c(-c3c(F)cc(N4CCCC4=O)cc3Cl)nc3cc(C)ccc32)C1` [Compound 4, (S)-1-(4-(1-((4-acetylmorpholin-2-yl)methyl)-5-methyl-1H-benzo[d]imidazol-2-yl)-3-chloro-5-fluorophenyl)pyrrolidin-2-one], for which the IC50 in experiment [1] was 1.93 µM; in experiment [2], more than 30 µM; in experiment [3] (setting [4]), more than 30 µM.

On to `COC(=O)N1CCO[C@@H](Cc2c(-c3c(F)cc(N4CCCC4=O)cc3F)nc3cc(C)ccn23)C1` [Compound 9, Methyl (S)-2-((2-(2,6-difluoro-4-(2-carbonylpyrrolidin-1-yl)phenyl)-7-methylimidazo[1,2-a]pyridin-3-yl)methyl)morpholine-4-carboxylate], for which the values for the IC50 in experiment [1], in experiment [2] and in experiment [3] were 30.3 µM, 1.48 µM and 12.9 µM, respectively.

For the molecule `CC(=O)N1CCO[C@@H](Cn2c(-c3c(F)cc(N4CCCC4=O)cc3F)nc3cc(Cl)ccc32)C1` [Compound 10, (S)-1-(4-(1-((4-acetylmorpholin-2-yl)methyl)-5-chloro-1H-benzo[d]imidazol-2-yl)-3,5-difluorophenyl)pyrrolidin-2-one], the half-maximal inhibitory concentration (IC50) in experiment [1] is 7.41 µM; in experiment [2], more than 30 µM; in experiment [3] (setting [4]) it was more than 30 µM.

As for `[2H]C([2H])([2H])c1ccc2c(c1)nc(-c1c(F)cc(N3CCCC3=O)cc1F)n2C[C@H]1CN(C(C)=O)CCO1` [Compound 14, (S)-1-(4-(1-((4-acetylmorpholin-2-yl)methyl)-5-(methyl-d3)-1H-benzo[d]imidazol-2-yl)-3,5-difluorophenyl)pyrrolidin-2-one], the IC50 in experiment [2] was 21.9 µM; in experiment [3] (setting [4]), more than 30 µM.

For orientation: IC50 means the concentration at which inhibition is half-maximal.

Source of the values: patent publication US20230250095A1, “BENZIMIDAZOLE DERIVATIVES, PREPARATION METHOD THEREFOR AND MEDICAL USE THEREOF” (TUOJIE BIOTECH(SHANGHAI) CO., LTD., priority 2020, published 2023).
